Assay results reported in PubChem BioAssay (NCI).
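Assay format: 96-well plates, 48-hour exposure. Abbreviation: GI50, concentration required for 50% inhibition of growth. TGI: total growth inhibition.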

Assays:
Experiment in all cases: NCI-60 cell line screen, 48 h
HT29 colon = system: HT29 colon
HCT-15 colon = system: HCT-15 colon
UACC-62 melanoma = system: UACC-62 melanoma
ACHN renal = system: ACHN renal
OVCAR-5 ovarian = system: OVCAR-5 ovarian
TK-10 renal = system: TK-10 renal
SK-OV-3 ovarian = system: SK-OV-3 ovarian
SK-MEL-5 melanoma = system: SK-MEL-5 melanoma
IGROV1 ovarian = system: IGROV1 ovarian
SK-MEL-2 melanoma = system: SK-MEL-2 melanoma
OVCAR-3 ovarian = system: OVCAR-3 ovarian
CCRF-CEM leukemia = system: CCRF-CEM leukemia
HL-60(TB) leukemia = system: HL-60(TB) leukemia
OVCAR-8 ovarian = system: OVCAR-8 ovarian
SR leukemia = system: SR leukemia
CAKI-1 renal = system: CAKI-1 renal
SNB-75 CNS = system: SNB-75 CNS
HOP-62 NSCLC = system: HOP-62 NSCLC
RPMI-8226 leukemia = system: RPMI-8226 leukemia
PC-3 prostate = system: PC-3 prostate
MOLT-4 leukemia = system: MOLT-4 leukemia
KM12 colon = system: KM12 colon
SN12C renal = system: SN12C renal
SNB-19 CNS = system: SNB-19 CNS
786-0 renal = system: 786-0 renal
UO-31 renal = system: UO-31 renal
OVCAR-4 ovarian = system: OVCAR-4 ovarian
A549 NSCLC = system: A549 NSCLC
HS 578T breast = system: HS 578T breast
SF-295 CNS = system: SF-295 CNS
NCI-H23 lung = system: NCI-H23 lung
HOP-92 NSCLC = system: HOP-92 NSCLC
K-562 leukemia = system: K-562 leukemia
SF-268 CNS = system: SF-268 CNS
HCC-2998 colon = system: HCC-2998 colon
NCI-H460 lung = system: NCI-H460 lung
T-47D breast = system: T-47D breast
MDA-MB-435 = system: MDA-MB-435
NCI-H522 lung = system: NCI-H522 lung
DU-145 prostate = system: DU-145 prostate
SK-MEL-28 melanoma = system: SK-MEL-28 melanoma
A498 renal = system: A498 renal
LOX IMVI melanoma = system: LOX IMVI melanoma
MALME-3M melanoma = system: MALME-3M melanoma
MCF7 breast = system: MCF7 breast
SW-620 colon = system: SW-620 colon
NCI-H226 lung = system: NCI-H226 lung
COLO 205 colon = system: COLO 205 colon
M14 melanoma = system: M14 melanoma
HCT-116 colon = system: HCT-116 colon
RXF 393 renal = system: RXF 393 renal
MDA-MB-231 breast = system: MDA-MB-231 breast
U251 CNS = system: U251 CNS
NCI/ADR-RES ovarian = system: NCI/ADR-RES ovarian
SF-539 CNS = system: SF-539 CNS
BT-549 breast = system: BT-549 breast
UACC-257 melanoma = system: UACC-257 melanoma
EKVX NSCLC = system: EKVX NSCLC

**Q.** For `O=c1oc2ccc(Br)cc2c(=O)n1-c1ccc(Br)cc1F`, which GI50 (HT29 colon) is on record?
**A.** 3090 nM

**Q.** And the TGI (HT29 colon)?
**A.** 12700 nM

**Q.** And the GI50 (HCT-15 colon)?
**A.** 733 nM

**Q.** What about the TGI (HCT-15 colon) of the same compound?
**A.** 7020 nM

**Q.** What about the GI50 (UACC-62 melanoma) of the same compound?
**A.** 223 nM

**Q.** What about the TGI (UACC-62 melanoma) of the same compound?
**A.** 772 nM

**Q.** And the GI50 (ACHN renal)?
**A.** 933 nM

**Q.** And the TGI (ACHN renal)?
**A.** 8460 nM

**Q.** What about the GI50 (OVCAR-5 ovarian) of the same compound?
**A.** 3100 nM

**Q.** And the TGI (OVCAR-5 ovarian)?
**A.** 48100 nM

**Q.** What about the GI50 (TK-10 renal) of the same compound?
**A.** 2860 nM

**Q.** What about the TGI (TK-10 renal) of the same compound?
**A.** 12800 nM

**Q.** What about the GI50 (SK-OV-3 ovarian) of the same compound?
**A.** 560 nM

**Q.** And the TGI (SK-OV-3 ovarian)?
**A.** 4970 nM

**Q.** And the GI50 (SK-MEL-5 melanoma)?
**A.** 269 nM

**Q.** And the TGI (SK-MEL-5 melanoma)?
**A.** 853 nM

**Q.** And the GI50 (IGROV1 ovarian)?
**A.** 337 nM

**Q.** And the TGI (IGROV1 ovarian)?
**A.** 11900 nM

**Q.** And the GI50 (SK-MEL-2 melanoma)?
**A.** 371 nM

**Q.** And the TGI (SK-MEL-2 melanoma)?
**A.** 1880 nM

**Q.** And the GI50 (OVCAR-3 ovarian)?
**A.** 477 nM

**Q.** And the TGI (OVCAR-3 ovarian)?
**A.** 6620 nM

**Q.** What about the GI50 (CCRF-CEM leukemia) of the same compound?
**A.** 1000 nM

**Q.** What about the TGI (CCRF-CEM leukemia) of the same compound?
**A.** 4950 nM

**Q.** What about the GI50 (HL-60(TB) leukemia) of the same compound?
**A.** 538 nM

**Q.** And the TGI (HL-60(TB) leukemia)?
**A.** 2530 nM

**Q.** And the GI50 (OVCAR-8 ovarian)?
**A.** 1220 nM

**Q.** What about the TGI (OVCAR-8 ovarian) of the same compound?
**A.** 9140 nM

**Q.** What about the GI50 (SR leukemia) of the same compound?
**A.** 712 nM

**Q.** And the TGI (SR leukemia)?
**A.** 6880 nM

**Q.** And the GI50 (CAKI-1 renal)?
**A.** 507 nM

**Q.** And the TGI (CAKI-1 renal)?
**A.** 3930 nM

**Q.** And the GI50 (SNB-75 CNS)?
**A.** 289 nM

**Q.** And the TGI (SNB-75 CNS)?
**A.** 2450 nM

**Q.** And the GI50 (HOP-62 NSCLC)?
**A.** 1350 nM

**Q.** What about the TGI (HOP-62 NSCLC) of the same compound?
**A.** 4790 nM

**Q.** And the GI50 (RPMI-8226 leukemia)?
**A.** 264 nM

**Q.** What about the TGI (RPMI-8226 leukemia) of the same compound?
**A.** 1060 nM

**Q.** And the GI50 (PC-3 prostate)?
**A.** 864 nM

**Q.** What about the TGI (PC-3 prostate) of the same compound?
**A.** 6770 nM

**Q.** And the GI50 (MOLT-4 leukemia)?
**A.** 1310 nM

**Q.** And the TGI (MOLT-4 leukemia)?
**A.** 4160 nM

**Q.** And the GI50 (KM12 colon)?
**A.** 2060 nM

**Q.** What about the TGI (KM12 colon) of the same compound?
**A.** 4930 nM

**Q.** And the GI50 (SN12C renal)?
**A.** 458 nM

**Q.** What about the TGI (SN12C renal) of the same compound?
**A.** 3620 nM

**Q.** And the GI50 (SNB-19 CNS)?
**A.** 378 nM

**Q.** What about the TGI (SNB-19 CNS) of the same compound?
**A.** 46700 nM

**Q.** What about the GI50 (786-0 renal) of the same compound?
**A.** 2060 nM

**Q.** And the TGI (786-0 renal)?
**A.** 4910 nM

**Q.** What about the GI50 (UO-31 renal) of the same compound?
**A.** 442 nM

**Q.** And the TGI (UO-31 renal)?
**A.** 2480 nM

**Q.** And the GI50 (OVCAR-4 ovarian)?
**A.** 539 nM

**Q.** And the TGI (OVCAR-4 ovarian)?
**A.** > 100000 nM

**Q.** And the GI50 (A549 NSCLC)?
**A.** 2050 nM

**Q.** And the TGI (A549 NSCLC)?
**A.** > 35500 nM

**Q.** And the GI50 (HS 578T breast)?
**A.** 380 nM

**Q.** What about the TGI (HS 578T breast) of the same compound?
**A.** 3790 nM

**Q.** What about the GI50 (SF-295 CNS) of the same compound?
**A.** 1490 nM

**Q.** And the TGI (SF-295 CNS)?
**A.** 3290 nM

**Q.** What about the GI50 (NCI-H23 lung) of the same compound?
**A.** 369 nM

**Q.** And the TGI (NCI-H23 lung)?
**A.** 2650 nM

**Q.** What about the GI50 (HOP-92 NSCLC) of the same compound?
**A.** 191 nM

**Q.** What about the TGI (HOP-92 NSCLC) of the same compound?
**A.** 683 nM

**Q.** And the GI50 (K-562 leukemia)?
**A.** 465 nM

**Q.** And the TGI (K-562 leukemia)?
**A.** > 100000 nM

**Q.** What about the GI50 (SF-268 CNS) of the same compound?
**A.** 688 nM

**Q.** What about the TGI (SF-268 CNS) of the same compound?
**A.** 7100 nM

**Q.** And the GI50 (HCC-2998 colon)?
**A.** 2470 nM

**Q.** And the TGI (HCC-2998 colon)?
**A.** 8040 nM

**Q.** What about the GI50 (NCI-H460 lung) of the same compound?
**A.** 511 nM

**Q.** What about the TGI (NCI-H460 lung) of the same compound?
**A.** 11100 nM

**Q.** And the GI50 (T-47D breast)?
**A.** 341 nM

**Q.** What about the TGI (T-47D breast) of the same compound?
**A.** 3840 nM

**Q.** What about the GI50 (MDA-MB-435) of the same compound?
**A.** 640 nM

**Q.** And the TGI (MDA-MB-435)?
**A.** 8870 nM

**Q.** What about the GI50 (NCI-H522 lung) of the same compound?
**A.** 351 nM

**Q.** What about the TGI (NCI-H522 lung) of the same compound?
**A.** 2920 nM

**Q.** What about the GI50 (DU-145 prostate) of the same compound?
**A.** 1140 nM

**Q.** And the TGI (DU-145 prostate)?
**A.** 21400 nM

**Q.** And the GI50 (SK-MEL-28 melanoma)?
**A.** 392 nM

**Q.** What about the TGI (SK-MEL-28 melanoma) of the same compound?
**A.** 1950 nM

**Q.** What about the GI50 (A498 renal) of the same compound?
**A.** 245 nM

**Q.** And the TGI (A498 renal)?
**A.** 774 nM

**Q.** And the GI50 (LOX IMVI melanoma)?
**A.** 469 nM

**Q.** And the TGI (LOX IMVI melanoma)?
**A.** 2540 nM

**Q.** What about the GI50 (MALME-3M melanoma) of the same compound?
**A.** 436 nM

**Q.** And the TGI (MALME-3M melanoma)?
**A.** 2550 nM

**Q.** What about the GI50 (MCF7 breast) of the same compound?
**A.** 1070 nM

**Q.** And the TGI (MCF7 breast)?
**A.** 8170 nM

**Q.** And the GI50 (SW-620 colon)?
**A.** 1220 nM

**Q.** What about the TGI (SW-620 colon) of the same compound?
**A.** 11200 nM

**Q.** What about the GI50 (NCI-H226 lung) of the same compound?
**A.** 1260 nM

**Q.** What about the TGI (NCI-H226 lung) of the same compound?
**A.** 4720 nM

**Q.** And the GI50 (COLO 205 colon)?
**A.** 3720 nM

**Q.** What about the TGI (COLO 205 colon) of the same compound?
**A.** 14000 nM

**Q.** And the GI50 (M14 melanoma)?
**A.** 816 nM

**Q.** What about the TGI (M14 melanoma) of the same compound?
**A.** 3590 nM

**Q.** What about the GI50 (HCT-116 colon) of the same compound?
**A.** 555 nM

**Q.** And the TGI (HCT-116 colon)?
**A.** 2100 nM

**Q.** What about the GI50 (RXF 393 renal) of the same compound?
**A.** 680 nM

**Q.** And the TGI (RXF 393 renal)?
**A.** 3730 nM

**Q.** And the GI50 (MDA-MB-231 breast)?
**A.** 551 nM

**Q.** And the TGI (MDA-MB-231 breast)?
**A.** 4810 nM

**Q.** And the GI50 (U251 CNS)?
**A.** 725 nM

**Q.** What about the TGI (U251 CNS) of the same compound?
**A.** 9820 nM

**Q.** What about the GI50 (NCI/ADR-RES ovarian) of the same compound?
**A.** 553 nM

**Q.** What about the TGI (NCI/ADR-RES ovarian) of the same compound?
**A.** 4330 nM

**Q.** And the GI50 (SF-539 CNS)?
**A.** 501 nM

**Q.** And the TGI (SF-539 CNS)?
**A.** 3540 nM

**Q.** What about the GI50 (BT-549 breast) of the same compound?
**A.** 452 nM

**Q.** And the TGI (BT-549 breast)?
**A.** 2200 nM

**Q.** What about the GI50 (UACC-257 melanoma) of the same compound?
**A.** 640 nM

**Q.** And the TGI (UACC-257 melanoma)?
**A.** 3760 nM

**Q.** And the GI50 (EKVX NSCLC)?
**A.** 1510 nM

**Q.** What about the TGI (EKVX NSCLC) of the same compound?
**A.** 8240 nM
